The values below come from ChEMBL document CHEMBL6114970, “Development of carbazole-based molecules for inhibition of mutant hSOD1 protein aggregation in Amyotrophic Lateral Sclerosis” (Bioorg Med Chem, 2025).

Active and inactive are the calls of the source. The calls are words filed in the database; no cut-off is given here.

The species entered for data set [1] is Homo sapiens. Description: Inhibition of TCEP-treated human SOD1 A4V mutant aggregation at 50 uM measured after 24 hrs by thioflavin-T fluorescence assay relative to control.
The species entered for data set [2] is Homo sapiens. Description: Inhibition of TCEP-treated human SOD1 G85R mutant aggregation at 50 uM measured after 24 hrs by thioflavin-T fluorescence assay relative to control.
The species entered for data set [3] is Homo sapiens. Put plainly: Inhibition of TCEP-treated human SOD1 G93A mutant aggregation at 50 uM measured after 24 hrs by thioflavin-T fluorescence assay relative to control.
Data set [4] in a line: (§1) Inhibition of TCEP-treated human SOD1 A4V mutant aggregation measured after 24 hrs by thioflavin-T fluorescence assay.
For data set [5], the species on record is Homo sapiens. The data set is described as §1.
Data set [6] is described as follows: (§2) Inhibition of TCEP-treated human SOD1 G85R mutant aggregation measured after 24 hrs by thioflavin-T fluorescence assay.
Data set [7] is filed under the species Homo sapiens. Described as §2.
The nature of data set [8]: (§3) Inhibition of TCEP-treated human SOD1 G93A mutant aggregation measured after 24 hrs by thioflavin-T fluorescence assay.
Data set [9] is filed under the species Homo sapiens. The description is as §3.
The species named for data set [10] is Homo sapiens. Description: Inhibition of TCEP-treated human SOD1 A4V mutant aggregation assessed as formation of few slender fibrils at 50 uM measured after 24 hrs by 1% uranyl acetate staining based transmission electron microscopy.
The species entered for data set [11] is Homo sapiens. Description: Inhibition of TCEP-treated human SOD1 G85R mutant aggregation assessed as formation of few slender fibrils at 50 uM measured after 24 hrs by 1% uranyl acetate staining based transmission electron microscopy.
The species named for data set [12] is Homo sapiens. Description: Inhibition of TCEP-treated human SOD1 G93A mutant aggregation assessed as formation of few slender fibrils at 50 uM measured after 24 hrs by 1% uranyl acetate staining based transmission electron microscopy.
For data set [13], the species on record is Homo sapiens. Description: Inhibition of TCEP-treated human SOD1 A4V mutant aggregation assessed as size of protein at 50 uM measured after 24 hrs at 37 deg C by dynamic light scattering analysis (reference value: 154.4 nm).
Data set [14] is filed under the species Homo sapiens. Put plainly: Inhibition of TCEP-treated human SOD1 G85R mutant aggregation assessed as size of protein at 50 uM measured after 24 hrs at 37 deg C by dynamic light scattering analysis (reference value: 151.1 nm).
Data set [15] is filed under the species Homo sapiens. Description: Inhibition of TCEP-treated human SOD1 G93A mutant aggregation assessed as size of protein at 50 uM measured after 24 hrs at 37 deg C by dynamic light scattering analysis (reference value: 84.38 nm).
The test system of data set [16] is N2a. Put plainly: Cytotoxicity against mouse Neuro2a cells over expressing hSOD1 G85R mutant assessed as reduction in cell viability up to 10 uM measured after 48 hrs by MTT assay. Type of data set: toxicity, cell-based.
For data set [17], the system named is N2a. Description: Cytotoxicity against mouse Neuro2a cells over expressing hSOD1 G85R mutant assessed as reduction in cell viability at 25 uM measured after 48 hrs by MTT assay. It counts as toxicity, cell-based.
Data set [18] concerns N2a. Description: Protection against MG132-induced SOD1 aggregation-associated cytotoxicity in mouse Neuro2a cells over expressing hSOD1 G85R mutant assessed as increase in cell viability at 1 uM preincubated for 24 hrs followed by MG132 addition and measured after 24 hrs by MTT assay. Type of data set: functional, cell-based. The conditions noted are these: time 48.0 hrs. For orientation: Formazan colour is commonly taken as a measure of viable cells.

In data set [19] the test system is N2a. Put plainly: Protection against MG132-induced SOD1 aggregation-associated cytotoxicity in mouse Neuro2a cells over expressing hSOD1 G85R mutant assessed as cell viability at 5 to 10 uM preincubated for 24 hrs followed by MG132 addition and measured after 24 hrs by MTT assay (reference value: 45%). Type of data set: functional. The conditions noted are these: dose 5-10 µM, time 48 hrs.

For data set [20], the system named is N2a. Description: Protection against MG132-induced SOD1 aggregation-associated cytotoxicity in mouse Neuro2a cells over expressing hSOD1 G85R mutant assessed as restoration of cell viability by phase contrast microscopy. Type of data set: functional, cell-based.
Data set [21] has as its system N2a. Put plainly: Protection against MG132-induced SOD1 aggregation-associated cytotoxicity in mouse Neuro2a cells over expressing hSOD1 G85R mutant assessed as restoration of normal morphology by phase contrast microscopy. It counts as functional, cell-based.
Data set [22] concerns N2a. Put plainly: Protection against MG132-induced SOD1 aggregation-associated apoptosis in mouse Neuro2a cells over expressing hSOD1 G85R mutant assessed as early apoptotic cells preincubated for 24 hrs followed by MG132 addition and measured after 24 hrs by Annexin V-APC/propidium iodide staining based flow cytometry (reference value: 1.41 %). It counts as functional. The conditions noted are these: time 48 hrs.

For data set [23], the system named is N2a. Put plainly: Protection against MG132-induced SOD1 aggregation-associated apoptosis in mouse Neuro2a cells over expressing hSOD1 G85R mutant assessed as late apoptotic cells preincubated for 24 hrs followed by MG132 addition and measured after 24 hrs by Annexin V-APC/propidium iodide staining based flow cytometry (reference value: 20.93 to 23.01 %). Type of data set: functional. The settings on record: time 48 hrs. For orientation: Flow cytometry measures light scatter and fluorescence of single cells or particles in a stream.

For data set [24], the system named is N2a. Description: Protection against MG132-induced SOD1 aggregation-associated apoptosis in mouse Neuro2a cells over expressing hSOD1 G85R mutant assessed as necrotic cells preincubated for 24 hrs followed by MG132 addition and measured after 24 hrs by Annexin V-APC/propidium iodide staining based flow cytometry (reference value: 2.23 %). It counts as functional. The conditions noted are these: time 48 hrs.

For data set [25], the system named is N2a. Description: Protection against MG132-induced SOD1 aggregation-associated apoptosis in mouse Neuro2a cells over expressing hSOD1 G85R mutant assessed as upregulation of Bcl-2 expression preincubated for 24 hrs followed by MG132 addition and measured after 24 hrs by Western blot analysis. The conditions noted are these: time 48.0 hrs. Type of data set: functional, cell-based.

For data set [26], the system named is N2a. Put plainly: Protection against MG132-induced SOD1 aggregation-associated apoptosis in mouse Neuro2a cells over expressing hSOD1 G85R mutant assessed as upregulation of Xiap expression preincubated for 24 hrs followed by MG132 addition and measured after 24 hrs by Western blot analysis. Type of data set: functional, cell-based. The settings on record: time 48.0 hrs.

Data set [27] deals with N2a. Description: Protection against MG132-induced SOD1 aggregation-associated oxidative stress in mouse Neuro2a cells over expressing hSOD1 G85R mutant assessed as reduction in ROS level at 10 uM preincubated for 24 hrs followed by MG132 addition and measured after 24 hrs by H2DCFDA dye based flow cytometry. It counts as functional, cell-based. The conditions noted are these: time 48.0 hrs.

Take `CCn1c2ccccc2c2cc(NC(=O)NNC(=S)Nc3ccc(Cl)cc3)ccc21`: the values for the inhibition in [1], in data set [2] and in data set [3] were 61.1%, 58.3% and 76.4%, respectively.

Take `CCn1c2ccccc2c2cc(NC(=O)NNC(=S)Nc3ccc([N+](=O)[O-])cc3)ccc21`: the figures for the inhibition in [1], in data set [2] and in data set [3] were 60%, 64.4% and 72.6%, respectively.

On to `CCn1c2ccccc2c2cc(NC(=O)NNC(=S)Nc3ccc(OC)cc3)ccc21`, for which the inhibition in data set [1] came out at 58.8%; in data set [2], 70.6%; in data set [3] it was 72.5%.

On to `CCn1c2ccccc2c2cc(NC(=O)NNC(=O)Nc3ccc([N+](=O)[O-])cc3)ccc21`, for which the results for the inhibition in data set [1], in data set [2] and in data set [3] were 55.3%, 43.1% and 48.2%, respectively.

On to `CCn1c2ccccc2c2cc(NC(=O)NNC(=S)Nc3ccccc3)ccc21`, for which the inhibition in [1] was 71.3%; in data set [2] it was 74.8%; in data set [3], 88.3%; in data set [5], “Dose-dependent-effect”; in data set [7] it was “Dose-dependent-effect”; in data set [9] it was “Dose-dependent-effect”. Besides, the inhibition result in [10], in [11] and in [12] was “Active; Displayed Better Reduction In Aggregate Formation Than Curcumin” in each case. For the same compound, the figures for the IC50 in [4], in [6] and in [8] were 32.4 µM, 31.3 µM and 26 µM, respectively. In addition, the Activity in data set [13] is 44.6 nm; in [14], 36.3 nm; in data set [15] it was 25.2 nm; in [16], “Non-toxic”; in [17], “Toxic”; in [19], 60%. Moreover, the Activity in data set [22] is listed as 1.04%; in data set [23] it was 8.26%; in data set [24] it was 2.64%; in data set [27] it was “Active; Significant Effect Observed”. Also, the outcome in data set [18] was inactive. In addition, the outcome in data set [20], in data set [21], in data set [25] and in data set [26] was Active.

For `CCn1c2ccccc2c2cc(NC(=O)NNC(=O)NCc3ccccc3)ccc21`, the inhibition in [1] is 31.9%; in data set [2] it was 70.7%; in data set [3], 25.1%.

For `CCn1c2ccccc2c2cc(NC(=O)NNC(=S)NCCc3ccccc3)ccc21`, the inhibition in data set [1] turned out to be 68.5%; in [2] it was 66.1%; in data set [3], 65.4%.

For the compound `CCn1c2ccccc2c2cc(NC(=O)NNC(=S)Nc3ccc(OC(F)(F)F)cc3)ccc21`, the results for the inhibition in data set [1], in data set [2] and in data set [3] were 69.7%, 63.2% and 72.3%, respectively.

In the case of `COc1cc(/C=C/C(=O)CC(=O)/C=C/c2ccc(O)c(OC)c2)ccc1O` [CURCUMIN], the inhibition in data set [1] was 58.7%; in data set [2], 42.8%; in data set [5], “Dose-dependent-effect”; in data set [7], “Dose-dependent-effect”; in [9], “Dose-dependent-effect”. Further, the IC50 in [4] is 40.9 µM; in data set [6] it was 64.1 µM; in data set [8], 32.3 µM. Moreover, the inhibition entry in [10], in data set [11] and in [12] was “Active” each time. Moreover, the Activity in data set [13] was 52.1 nm; in data set [14], 40.2 nm; in data set [15], 31.7 nm; in [16], “Non-toxic”; in [17] it was “Toxic”; in data set [19], 60%. For the same compound, the Activity is reported as 0.97% in data set [22], 8.19% in data set [23], 2.58% in data set [24] and “Active; Significant Effect Observed” in data set [27]. Besides, in [18], the outcome was inactive. Moreover, the outcome in data set [20], in [21], in [25] and in data set [26] was Active.

As to `CCn1c2ccccc2c2cc(NC(=O)NNC(=S)NCc3ccccc3)ccc21`, the values for the inhibition in data set [1], in data set [2] and in [3] were 54.2%, 56.4% and 69.8%, respectively.

As for `Nc1nc2ccc(OC(F)(F)F)cc2s1`, the inhibition in data set [1] is 9.88%. The inhibition entry in [2] and in data set [3] was “inactive” throughout.

As to `CCn1c2ccccc2c2cc(NC(=O)NNC(=O)Nc3ccccc3)ccc21`, the results for the inhibition in data set [1], in data set [2] and in [3] were 46.9%, 65.9% and 63.4%, respectively.

In the case of `CCn1c2ccccc2c2cc(NC(=O)NNC(=O)Nc3ccc(OC)cc3)ccc21`, the inhibition in data set [1] was 40.6%; in data set [2], 38.2%; in [3], 61.8%.

On to `CCn1c2ccccc2c2cc(NC(=O)NNC(=O)Nc3ccc(OC(F)(F)F)cc3)ccc21`, for which the inhibition in [1] worked out at 47.1%; in [2] it was 63.8%; in [3] it was 73.8%.

`CCn1c2ccccc2c2cc(NC(=O)NNC(=O)NCCc3ccccc3)ccc21`: the inhibition was determined as 62.8% in data set [1], 70% in data set [2] and 44.5% in data set [3].

For the compound `CCn1c2ccccc2c2cc(NC(=O)NNC(=O)Nc3ccc(F)cc3)ccc21`, the inhibition came out at 46.1% in [1], 43.4% in data set [2] and 71.9% in data set [3].

As to `CCn1c2ccccc2c2cc(NC(=O)NNC(=O)Nc3ccc(Cl)cc3)ccc21`, the results for the inhibition in data set [1], in data set [2] and in data set [3] were 59.3%, 63.3% and 33.9%, respectively.

In general, inhibition refers to the change of the read-out against control, counted positive when it falls. As a reminder, the IC50 is the point on the concentration scale where inhibition reaches its midpoint.
